Data as given in US20130053435A1, “Methods of Treating Alcohol Intoxication, Alcohol Use Disorders and Alcohol Abuse Which Comprises the Administration of Dihydromyricetin” (priority 2011, published 2013).

Test system: T1, GABAARs
T1 construct: rows headed: effect on GABAAR-currents; effect on GABAAR-currents; other: zolpidem 0.3 μM, DGCs of EtOH group
Test: Whole-cell patch-clamp, DGCs in hippocampal slices 48 hr after in vivo treatment
Format: cell-based, rat
Conditions: zolpidem 0.3 μM
Procedure: Transverse slices (400 μm) of dorsal hippocampus were obtained with a Vibratome (VT 100, Technical Products International, St. Louis, Mo.) and standard techniques known in the art. Slices were continuously perfused with artificial cerebrospinal fluid (ACSF). See Liang, J., et al. (2007) J Neurosci 27:12367-12377.
Whole-cell patch-clamp recordings were obtained at 34±0.5° C. from cells located in the DG layer at a holding potential of −70 mV, during perfusion with artificial cerebrospinal fluid (ACSF, 125 mM NaCl, 2.5 mM KCl, 2 mM CaCl2, 2 mM MgCl2, 26 mM NaHCO3, and 10 mM D-glucose). The ACSF was continuously bubbled with 95% O2-5% CO2 to ensure adequate oxygenation of slices and a pH of 7.4. Patch electrodes were pulled from thin-wall borosilicate glass pipettes with resistances of 7.5-9 MΩ and were filled with pipette solution (i.e. 137 mM CsCl, 2 mM MgCl2, 1 mM CaCl2, 11 mM EGTA, 10 mM HEPES and 3 mM ATP, pH adjusted to 7.30 with CsOH). Signals were recorded in voltage-clamp mode with a […] amplifier (Molecular Devices, Sunnyvale, Calif.). Whole cell access resistances were in the range of <25 MΩ before electrical compensation by about 70%. During voltage-clamp recordings, access resistance was monitored by measuring the size of the capacitative transient in response to a 5 mV step command and the data were abandoned if changes >20% were encountered. At least 10 min was allowed for equilibration of the pipette solution with the intracellular milieu before commencing mIPSC recordings. Intracellular signal was low-pass filtered at 3 kHz and data were acquired with Digidata 1440A and software CLAMPEX 10 (Molecular Devices) at a sampling frequency of 20 kHz.
Pharmacologically-isolated GABAAR-mediated mIPSCs were recorded as previously described (Liang (2007) and Shen (2011)). […] Data were analyzed using the Clampfit (Version 9.0, Molecular Devices) and the MiniAnalysis Program (versions 6.0.7, Synaptosoft, Decatur, Ga.).
The MiniAnalysis program (Synaptosoft, Decatur, Ga.) was used to analyze mIPSCs. Itonic is the averaged baseline currents of a given recording period. Itonic amplitude was calculated as the difference between the holding currents measured before and after picrotoxin (100 μM) or bicuculline (10 μM). See Wei, W., et al. (2004) J Neurosci 24, 8379-8382; Liang (2007); and Shen (2011). Briefly, the recordings were low-pass filtered off-line (Clampfit software) at 2 kHz. The mIPSCs were detected (Mini Analysis Program, version 6.0.7) with threshold criteria of 8 pA amplitude and 20 pA*ms charge transfer. The frequency of mIPSCs was determined from all automatically detected events in a given 100 s recording period. For kinetic analysis, only single event mIPSCs with a stable baseline, sharp rising phase (10 to 90% rise time), and exponential decay were chosen during visual inspection of the recording trace. Double and multiple peak mIPSCs were excluded. At least 100 individual mIPSC events were recorded under each experimental condition. The mIPSC kinetics was obtained from analysis of the averaged chosen single events aligned with half rise time in each cell. Decay time constants were obtained by fitting a double exponential to the falling phase of the averaged mIPSCs. Itonic magnitudes were obtained from the averaged baseline current of a given recording period. Itonic amplitude was calculated as the difference between the holding currents measured before and after the application of picrotoxin (50 μM) or bicuculline (10 μM). See Liang J et al (2007); Shen (2011); Hamann (2002); and Mangan P S, et al. (2005) Mol Pharmacol 67(3):775-788. The investigator performing the recordings and mIPSC analysis was blind to the treatment (vehicle, EtOH, E+D, or D) that the rats received.
After 48 hr withdrawal, whole-cell GABAAR-mediated currents were recorded on DGCs in hippocampal slices. In the vehicle group, bath application of EtOH (60 mM) enhanced Itonic from 28.8±3.1 to 62.1±3.3 pA (FIG. 13, panels A, G). […]

Cc1ccc(-c2nc3ccc(C)cn3c2CC(=O)N(C)C)cc1 [Zolpidem, zolpidem, reference compound]
effect on GABAAR-currents (DGCs of DHM group as in vehicle group): potentiation | effect on GABAAR-currents (DGCs of EtOH group): did not affect GABAAR-currents
